Measurements published in patent US9023835B2, “Agent for ameliorating blood-brain barrier disorders” (Nagasaki University, priority 2009, dated 2015).

What was measured:
[1] = tested on: cerebral ischemia model mice (left middle cerebral artery infarction, reperfusion); assay: Tomato lectin staining of cerebral microvessels (blood-brain barrier disorder) in transient cerebral ischemia model mice; assay type: in vivo, C57BL/J6 mice; settings: for tomato lectin signal (microvessel length) on the ipsilateral-to-ischemia side, cerebrocortical sensation region: 1 h MCAO, i.v. 1 h after reperfusion, ProTα 100 μg/kg, ProTα30 1 mg/kg, ProTα9 0.3 mg/kg, C-term 0.3 mg/kg; for suppression of cerebrovascular collapse (tomato lectin staining, cortex and striatum): Example 4, same experiment as Example 1, ProTα vs ProTα30
Method: Five minutes later, the whole body was perfused and fixed with para-formaldehyde (PFA); the brain was extracted and further treated with 4% PFA at room temperature for 3 hours. Thereafter, the brain was placed in 25% sucrose solution and allowed to stand at 4° C. overnight. The brain was freeze-embedded in the OCT compound, and a 50 μm-thick section was prepared on a plane including the cerebral cortex sensory area S1 (CS1) or S2 (CS2), bonded onto a silane-coated glass slide, and dried on a heater overnight. Thereafter, using Alexa Fluor488-labeled streptavidin (diluted 300 fold with 2% BSA/PBST), fluorescent staining of tomato lectin was performed, after which the specimen was fixed with the fluorescent antifading agent Fluoromount (Japan Tanner Corporation), and allowed to stand in the dark overnight, then examined using the LSM5 PASCAL confocal laser microscope (Carl Zeiss). Fluorescent signals were cumulatively analyzed for total fluorescence in an approximately 30 μm range by the deconvolution method.
After 0.5 hours of middle cerebral artery obstruction (MCAO), reperfusion was performed; 1 hour later, tomato lectin staining in the CS2 region was observed as a signal of approximately 30 μm length on the contralateral-to-ischemia side (the scale bar is 100 μm, ×20 objective lens).
The same experiment as that shown in Example 1 was performed using ProTα and the active form ProTα30, and the effects thereof were comparatively analyzed.
Furthermore, fluorescent staining of tomato lectin was performed in the same manner as in Example 1, and microvessels were analyzed.
When reperfusion was performed after 1 hour of middle cerebral artery occlusion (MCAO), tomato lectin staining of the cerebrocortical sensation region was observed as a signal roughly 30 μm long on the contralateral-to-ischemia side (Contra).

[2] = tested on: transient cerebral ischemia model mice; assay: Transient cerebral ischemia model mice: infarction region volume (TTC), clinical score, survival rate; settings: for infarction region suppressing effect: 0.3 mg/kg i.v.; for infarction (infarction region volume, TTC): 24 h later, solvent alone 48%; for infarction (infarction region volume): solvent 48%
Method: Cerebral ischemia model mice generated by infarcting the left middle cerebral arteries of C57BL/J6 mice were maintained for 1 hour, and then reperfusion was performed. One hour after the reperfusion, a vehicle or ProTα30 (10 μg) was intracerebroventricularly administered (i.c.v.); the mice were examined over time every 24 hours to evaluate the motor function and survival rate. Also, clinical scores indicating movement disorders subsequent to left middle cerebral artery infarction were evaluated according to the rating system of 1: unable to completely extend the right forelimb, 2: rightward turning behavior, 3: unable to keep the posture and leans in the rightward direction, 4: loss of spontaneous movement, 5: death.
Meanwhile, 1 hour after ischemia and reperfusion, ProTα30 (0 μg (Veh), 0.1 μg or 10 μg) was intracerebroventricularly administered; the whole brain, extracted 24 hours thereafter was treated with 2% TTC (2,3,5-Triphenyltetrazolium chloride) staining solution in solution in PBS, and washed with PBS, after which five coronary sections of 1 mm thickness were taken with coverage of 2 mm anteriorly and 3 mm posteriorly from the bregma. […] The cerebral infarction region was evaluated according to the equation below. […] All volume on the ipsilateral side refers to the entire infarcted and non-infarcted regions on the ischemized side as divided on the median line, whereas all volume on the contralateral side refers to the entire region on the non-ischemized side.

[3] = tested on: photoinduced middle cerebral artery thrombosis (PIT) model mice; assay: Photoinduced middle cerebral artery thrombosis (PIT) model mice: infarction region volume, motor function; assay type: in vivo, C57BL/J6 mice; settings: for infarction (infarction region volume): after 24 hours of ischemia, solvent 48%; for motor function evaluation (inability to keep the posture and leaning or loss of spontaneous movement): 24 hours after ischemia, ProTα 100 μg/kg, ProTα30 1 mg/kg, ProTα9 0.1-1 mg/kg
Method: The left middle cerebral artery of a C57BL/J6 mouse was exposed under the dura, and the photosensitizing dye rose bengal was administered at 30 mg/kg into a caudal vein, after which green light with a given wavelength was irradiated to the middle cerebral artery for 10 minutes to produce a thrombus, and induce infarction with this thrombus. One hour after light irradiation, vehicle, ProTα (100 μg/kg), ProTα30 (1 mg/kg), or ProTα9 (0.1 mg/kg, 0.3 mg/kg and 1 mg/kg) was administered to a caudal vein. Next, after 24 hours of ischemia, infarction region volume was measured to evaluate the motor function in the same manner as the above.

[4] = tested on: permanent cerebral ischemia model mice; assay: Permanent cerebral ischemia model mice: infarction region volume, clinical score, survival rate; settings: no reperfusion, 24 h later, solvent 60%
Method: To permanent cerebral ischemia model mice generated by infarcting the middle cerebral arteries of C57BL/J6 mice, ProTα30 was intravenously administered (i.v.), without reperfusion, 2 hours and 4 hours after the start of ischemia. Next, 24 hours later, in the same manner as the above, infarction region volume was measured.
To permanent cerebral ischemia model mice generated by infarcting the middle cerebral arteries of C57BL/J6 mice, ProTα was administered into a caudal vein at 100 μg/kg, without reperfusion, 2, 7, or 12 hours after the start of ischemia. Next, in the same manner as the above, infarction region volume was measured. […] In the same mice, motor function was evaluated. Clinical scores indicating motor function disorders were evaluated in the same manner as Example 5.
Meanwhile, a vehicle or ProTα (100 μg) was administered into a caudal vein (i.v.) 2 and 4 hours after the start of ischemia, and the mice were examined over time every 24 hours to evaluate the motor function and survival rate.

[5] = tested on: permanent cerebral ischemia model rats; assay: Permanent cerebral ischemia model rats: infarction region volume, clinical score, survival rate
Method: To permanent cerebral ischemia model rats generated by infarcting the middle cerebral arteries of Sprague-Dawley rats, ProTα was administered into a caudal vein (i.v.), without reperfusion, 4 hours after the start of ischemia. Next, 24 hours later, infarction region volume was measured in the same manner as the above.
Furthermore, rats were examined over time every 24 hours to evaluate the motor function and survival rate.

[6] = 1 mg/kg caudal vein 1 hour after light irradiation

Substance	tomato lectin signal (microvessel length) on the ipsilateral-to-ischemia side, cerebrocortical sensation region [1]	infarction region suppressing effect [2]	infarction injury region, dose dependence ([3]; 0.1 mg/kg, 0.3 mg/kg and 1 mg/kg caudal vein)	infarction (infarction region volume) [3, 6] [%]	motor function evaluation (inability to keep the posture and leaning or loss of spontaneous movement) [3]	suppression of cerebrovascular collapse (tomato lectin staining, cortex and striatum) [1]	infarction (infarction region volume) ([4]; 1 mg/kg i.v. once, 2 hours after infarction) [%]	infarction (infarction region volume) ([4]; i.v. twice, at 2 hours and 4 hours) [%]	infarction (infarction region volume, TTC) ([2]; 0.1 μg i.c.v. 1 h after reperfusion) [%]	infarction (infarction region volume, TTC) ([2]; 10 μg i.c.v. 1 h after reperfusion) [%]	motor function evaluation (clinical score) ([2]; 10 μg i.c.v., loss of spontaneous movement 3 days after ischemia and reperfusion)	clinical scores (hemiparalysis of degree 3) ([2]; 0.275 mg/kg i.v.)	infarction (infarction region volume) ([2]; 0.275 mg/kg i.v. once 1 hour after reperfusion) [%]	clinical scores (hemiparalysis of degree 3) ([2]; 1 mg/kg i.v.)	infarction (infarction region volume) ([2]; 1 mg/kg i.v. once 1 hour after reperfusion) [%]	survival rate ([2]; mouse, in vivo)	cerebrovascular destruction in the CS2 and striata on the ischemized side (tomato lectin staining) ([1]; 0.1 mg/kg i.v. 1 hour after reperfusion, examined 24 hours after reperfusion)	survival rate ([5]; 100 μg caudal vein, about 2 weeks later, non-dosing group 50% one day after ischemia)	infarction (infarction region volume) ([5]; 100 μg/kg i.v. 4 hours after infarction, 24 h later, solvent 40%) [%]	infarction (infarction region volume) ([3]; 100 μg/kg caudal vein 1 hour after infarction) [%]
C-term: C-end of ProTα, amino acid sequence TKKQKKTDEDD (SEQ ID NO: 50) [reference compound]	observed only as a fragment																			
ProTα9: polypeptide consisting of the 52nd amino acid to the 60th amino acid of rat prothymosin α, EVDEEEEEG (SEQ ID NO:6) (consensus amino acid sequence)	longer signals	cerebral infarction region suppressing effect	decreased in a dose-dependent fashion	30	significantly ameliorated															
ProTα30: polypeptide consisting of the 49th amino acid to the 78th amino acid of rat prothymosin α (SEQ ID NO:4) (ADNEVDEEEEEGGEEEEEEEEGDGEEEDGD; consensus amino acid sequence)	longer signals	cerebral infarction region suppressing effect		30	significantly ameliorated	suppressing cerebrovascular collapse	34	27	44	38	significantly ameliorated	no effect was observed	39	ameliorated significantly	13	about 80%				
prothymosin α (SDAAVDTSSEITTKDLKEKKEVVEEAEN; UniProt P26350 2-29, looked up) [ProTα, known protein]	longer signals				significantly ameliorated	suppressing cerebrovascular collapse											disappeared nearly completely	about 75%	25	23
